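Cultured in 96-well plates, cells were exposed to test compound for 48 hours across five concentrations. TGI: concentration producing complete growth inhibition.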 Where a SMILES comes first, the peptide text is derived from it. [ ]: non-standard residue; d: D form. Ava = NCCCCC(=O)O; Mpa = O=C(O)CCS
What was measured:
Experiment in all cases: NCI anticancer screen, dose series, 48 h
SK-MEL-2 melanoma = test system: SK-MEL-2 melanoma
SF-295 CNS = test system: SF-295 CNS
CAKI-1 renal = test system: CAKI-1 renal
A549 NSCLC = test system: A549 NSCLC
MCF7 breast = test system: MCF7 breast
SF-268 CNS = test system: SF-268 CNS
SR leukemia = test system: SR leukemia
MDA-MB-231 breast = test system: MDA-MB-231 breast
IGROV1 ovarian = test system: IGROV1 ovarian
HOP-62 NSCLC = test system: HOP-62 NSCLC

Structure (SMILES) | TGI (SK-MEL-2 melanoma) [µM] | TGI (SF-295 CNS) [µM] | TGI (CAKI-1 renal) [µM] | TGI (A549 NSCLC) [µM] | TGI (MCF7 breast) [µM] | TGI (SF-268 CNS) [µM] | TGI (SR leukemia) [µM] | TGI (MDA-MB-231 breast) [µM] | TGI (IGROV1 ovarian) [µM] | TGI (HOP-62 NSCLC) [µM]
CC(NC(=O)CCS)C(=O)NC(C)C(=O)NC(Cc1c[nH]c2ccccc12)C(=O)NC(Cc1c[nH]cn1)C(=O)NC(CO)C(=O)NC(Cc1c[nH]c2ccccc12)C(=O)NCCCCC(=O)NC(C)C(=O)NC(CCC(N)=O)C(=O)NC(CCCCN)C(=O)NC(C)C(=O)NC(CCCNC(=N)N)C(=O)NC(CCCCN)C(N)=O (stereo not given) ([Mpa]AAWHSW[Ava]AQKARK-NH2; configuration not given here) | > 100 | > 100 | > 100 | > 100 | > 100 | > 100 | > 100 | > 100 | > 100 | > 100
CN(C)N1C(=O)C(=O)N(c2cccc3ccccc23)C1=O | > 10 | > 10 | > 10 | > 10 | > 10 | > 10 | > 10 | > 10 | > 10 | > 10
CCO/N=C\c1ccc2oc(-c3ccccc3)cc(=O)c2c1 | 4.54 | 16.3 | 41.7 | 17 | 18 | 24.2 | 1.99 | 13.1 | 10.7 | 28.7
Cc1cc2ncn(CC(=O)O)c2cc1C | > 100 | > 100 | > 100 | > 100 | > 100 | > 100 | > 100 | > 100 | > 100 | > 100
COc1cc2c(cc1OC)C(CCN)=NCC2 | 31.9 | > 100 | 25.2 | > 100 | 40.2 | 36.3 | 23.8 | 30.8 | 52 | > 57.4
CCC1c2[nH]c3ccccc3c2C[C@H]2C(=O)NC(C)C(=O)N12 (stereo not given in full) | > 100 | > 100 | > 100 | > 100 | > 100 | > 100 | > 100 | > 100 | > 100 | > 100
O=C(CCCc1cccc2[nH]c3c(c12)CN(Cc1ccccc1)CC3)c1ccc(F)cc1 | > 100 | > 100 | > 100 | > 100 | > 100 | > 100 | > 100 | > 100 | > 100 | > 52.6
Cc1ccc(C(=O)Nc2ccc(S(=O)(=O)O)c3cc(S(=O)(=O)O)cc(S(=O)(=O)O)c23)cc1NC(=O)c1cccc(NC(=O)Nc2cccc(C(=O)Nc3cc(C(=O)Nc4ccc(S(=O)(=O)O)c5cc(S(=O)(=O)O)cc(S(=O)(=O)O)c45)ccc3C)c2)c1 | > 100 | > 100 | > 100 | > 100 | > 100 | > 100 | > 100 | > 100 | > 100 | > 100
CC1=C[P+](c2ccccc2)(c2ccccc2)c2ccccc2O1 | 94.6 | 38.9 | > 100 | > 100 | > 100 | > 100 | 8.28 | 21.6 | 44.9 | 59
NCCCn1c(Cl)nc2ccccc21 | > 100 | > 100 | > 100 | > 100 | > 100 | > 100 | > 100 | > 100 | > 100 | > 100
CCOC(CBr)OC1C(=O)OCC1(C)C (stereo not given) | > 100 | > 100 | > 100 | > 100 | > 100 | > 100 | > 100 | > 100 | > 100 | > 100
CCOC(=O)NC(Nc1ccc(F)cc1F)(C(F)(F)F)C(F)(F)F | > 100 | > 100 | > 100 | > 100 | > 100 | > 100 | > 100 | > 100 | > 100 | > 100
Nc1cc(CO)cc(Nc2c3ccccc3nc3ccccc23)c1 | 30.5 | 25.3 | 31.7 | 38.9 | 29.5 | 60 | > 100 | 24.8 | 31.3 | 28.8
CCN(CC)Cc1cc(N=Nc2c(O)ccc3c(N=Nc4ccc(O)c(CN(CC)CC)c4)c(O)ccc23)ccc1O | > 51.6 | 20 | 8.25 | > 23.5 | 13 | 33.8 | 8.53 | 4.52 | 19 | 15.2
CC(=O)C1=C(C)N(c2ccccc2)C2(O)C3=C(C(=O)c4ccccc4C3=O)C(O)=CC12Cl (stereo not given) | 22.2 | 40.6 | 27.2 | > 100 | 39.9 | 60.6 | 12.3 | > 100 | 8.25 | 80.1
Cc1ccc([N+](=O)[O-])cc1S(=O)(=O)Nc1ccc(C2=NN(S(=O)(=O)c3cc([N+](=O)[O-])ccc3C)C(c3cccs3)C2)cc1 (stereo not given) | 69.2 | 69.2 | > 100 | > 100 | 82.1 | 75 | 66.1 | > 100 | > 100 | > 100
CCOC(=O)/C(C(N)=O)=C(\O)C(=O)/C=C(\O)c1ccc(Cl)cc1 | 34.4 | > 100 | 64 | > 100 | 62.4 | 59.9 | 44.5 | 32.2 | 36.2 | 60.7
COc1ccc(N2C(=O)C3ON(Cc4ccc(CC(N)=O)cc4)C(c4c5ccccc5c(C)c5ccccc45)C3C2=O)cc1 (stereo not given) | 48.7 | > 100 | > 100 | > 100 | 46.6 | > 100 | 36.8 | > 100 | > 100 | > 100
N=C1OC(CN2CCN(c3ccccc3)CC2)CN1C(=O)Nc1ccccc1 (stereo not given) | > 100 | > 100 | > 100 | > 100 | > 100 | > 100 | > 100 | > 100 | > 100 | > 100
COc1cc(/C=C/C(=O)CC(=O)/C=C/c2cc(C)c(O)c(OC)c2)cc(C)c1O | > 100 | > 100 | > 100 | > 100 | > 100 | > 100 | > 100 | > 100 | > 100 | > 100
Cc1cc(=O)[nH]c2cc(NC(=O)C(C)NC(=O)C(C)NC(=O)C(C)NC(=O)OC(C)(C)C)ccc12 (stereo not given) | > 15 | > 15 | > 15 | > 15 | > 15 | > 15 | > 15 | > 15 | > 15 | > 15
Nc1cc(C2CCCc3c2[nH]c2ccccc32)ccc1O (stereo not given) | > 100 | > 100 | 84.5 | > 100 | > 100 | > 100 | > 100 | > 100 | > 100 | > 100
CN1C/C(=C\c2cccs2)C2=NN(c3ccccc3)C(c3cccs3)C2C1 (stereo not given) | > 100 | > 80.3 | > 100 | > 100 | > 100 | > 40.6 | > 100 | 98.7 | > 25.5 | > 100
COc1ccc(-c2c(C#N)c(N)[nH]c(=S)c2C#N)cc1 | > 100 | > 100 | > 100 | > 100 | > 100 | > 100 | > 100 | > 100 | > 100 | > 100
O=C(O)c1ccc2c(O)c(O)ccc2c1 | 67.3 | 33.5 | 48.2 | > 93.8 | > 100 | 22.3 | 13.8 | 68.5 | 38.2 | 41
COc1ccc(SCc2cc(OC)ccc2OC)cc1 | > 88.8 | > 100 | > 100 | > 100 | > 100 | > 100 | > 100 | > 100 | > 100 | > 100

— PubChem BioAssay (NCI)
